Values quoted from earlier work as cited in patent publication US6376242B1, “Methods and compositions for treating platelet-related disorders using MPL pathway inhibitory agents” (Emory University, priority 1999, dated 2002).

System: megakaryocyte cell line
Details: in vitro

For `N#C/C(=C/c1ccc(O)c(O)c1)C(=O)NCc1ccccc1` [AG-490], the “inhibition of proliferation of a megakaryocyte cell line” value is given as “inhibit proliferation of a megakaryocyte cell line in vitro”.
